# Experimental data taken from US20230034660A1, “PEPTIDES THAT ENHANCE NMDA RECEPTOR FUNCTION AND USE THEREOF” (University of Pittsburgh - Of the Commonwealth System of …, priority 2019, published 2023).
# Biological target: T1, mouse ZnT-1 (Mus musculus, UniProt Q60738)
# T1 construct: host or cells: HEK293
# T1 sequence (Q60738 1-503): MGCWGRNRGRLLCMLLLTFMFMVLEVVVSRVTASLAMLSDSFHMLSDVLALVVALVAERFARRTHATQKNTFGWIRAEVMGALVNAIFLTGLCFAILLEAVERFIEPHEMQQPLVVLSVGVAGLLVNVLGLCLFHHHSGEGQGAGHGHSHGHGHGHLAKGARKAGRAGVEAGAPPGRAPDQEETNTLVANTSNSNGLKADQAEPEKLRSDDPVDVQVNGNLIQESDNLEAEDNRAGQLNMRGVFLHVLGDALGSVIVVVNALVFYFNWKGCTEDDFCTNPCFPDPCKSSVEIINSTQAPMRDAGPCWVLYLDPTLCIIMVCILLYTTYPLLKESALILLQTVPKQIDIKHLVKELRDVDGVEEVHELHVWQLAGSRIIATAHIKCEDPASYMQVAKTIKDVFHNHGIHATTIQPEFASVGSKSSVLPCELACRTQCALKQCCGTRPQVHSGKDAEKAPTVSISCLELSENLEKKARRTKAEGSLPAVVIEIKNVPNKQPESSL
# Assay: Zinc efflux assay (FluoZin-3) in ZnT1-transfected HEK293 cells
# Type: cell-based
# Details: ZnT1-expressing HEK293 cells, 3 μM overnight, N2AZ versus scN2AZ
# Procedure: HEK293 cells were grown in Dulbecco's modified Eagle's medium (DMEM) containing: 100 units/ml penicillin, 0.1 mg/ml streptomycin, 2 mm glutamine, and 10% (v/v) fetal calf serum in a 5% CO2 humidified atmosphere at 37° C. To express ZnT1, HEK 293 cells were transfected with ZnT1 or empty plasmid (control) using CaPO4 precipitation. Briefly,1 μg mouse ZnT-1 (pCMV6:ZnT1 Gen Bank Q60738) or empty vector plasmid (pCMV6, Origene) was incubated with 2 M calcium chloride in HEPES buffered solution containing […] to generate a co-precipitate, this solution was then dispersed onto cultured cells for 6 hours. Twenty four hours later, cells were treated with the scN2AZ or N2AZ (3 μM ) overnight. […] Rates of initial decrease of the fluorescent signal following exposure to Zn^2+ were determined during a 100 second period. […] Fluorescence imaging measurements were acquired using Axon Imaging Workbench 5.2 (INDEC BioSystems) and analyzed using Excel and Prism GraphPad.
# Next, it was examined whether N2AZ could modify ZnT1-dependent zinc transport. Following an intracellular zinc load, decreases in intracellular zinc levels were measured over time as a readout of zinc transport in HEK293 cells previously transfected with a plasmid encoding for ZnT1 or an empty vector. FluoZin-3 fluorescence was utilized to quantify intracellular zinc levels (Qin et al., 2009; Shusterman et al., 2014). […]
sequence,measurement,value
NDSYLRSSL [Peptide N2AZ],rate of zinc efflux,not different
